Source: paper PMC12259270, “Sensory neuron–expressed FGF13 controls nociceptive signaling in diabetic neuropathy models” (The Journal of Clinical Investigation, 2025)
Residues, ends and D or L forms follow the SMILES beside them. *: point of attachment. NHPh = c1ccc(N*)cc1

System: Na+ currents in hIPSC-derived sensory neurons (RealDRG)
Assay: Whole-cell voltage clamp, hIPSC-derived sensory neurons (RealDRG) with Nav1.8 blocker A-803467
Type: cell-based, human
Details: for Activation / Peak Density / Steady-State inactivation / Tau (τ) / Long-term inactivation, 2nd Pulse / Long-term inactivation, 3rd Pulse / Long-term inactivation, 4th Pulse: RealDRG
Experimental: Next, we conducted whole-cell patch-clamp electrophysiological recordings in hIPSC-derived sensory neurons under three conditions: unstimulated and treated with 0.07% ethanol (capsaicin vehicle), treated with capsaicin (100 nM, 10 minutes), and treated with capsaicin plus SB-366791 (10 μM), a selective TRPV1 inhibitor. Each group was exposed to either vehicle (0.01% DMSO) or PW164 (50 μM), with all recordings performed in the presence of the Nav1.8 blocker A-803467 (300 nM) ([41]). The experimental groups are color coded in Figure 2A. Capsaicin caused potentiation of INa (Figure 2A) and induced hyperpolarizing shifts in the V1/2 of activation (Figure 2B) and SSI (Figure 2C). […] Next, we investigated whether silencing FGF13 could replicate PW164’s effects and prevent additional activity of the compound. hIPSC-derived sensory neurons were transfected with a previously validated pAAV-shFGF13-GFP construct ([42]) (Supplemental Figure 8). […] Neither PW164 nor FGF13 silencing affected Na+ currents in neurons transfected with pAAV-shCTRL-GFP or pAAV-shFGF13-GFP, whether unstimulated or treated with capsaicin in the presence of ProTx II (Supplemental Figure 9 and Supplemental Table 6). Thus, PW164 selectively modulated FGF13-dependent Na^+ current sensitization via TRPV1, with FGF13 silencing mimicking and validating PW164’s effect. […]
Whole-cell patch clamp electrophysiology
HEK293-Nav1.7 cells, HEK293 stably expressing human Nav1.6 (HEK-Nav1.6), HEK293 stably expressing human Nav1.5 (HEK-Nav1.5), human hIPSC-derived sensory neurons (RealDRGTM from Anatomic Incorporated 1020F1-1M) and donor-derived DRG neurons were plated at low density on glass coverslips and processed for whole-cell patch clamp electrophysiology in voltage-clamp and/or current clamp mode. Whole-cell patch electrophysiological experiments were conducted following previously published studies (26). Current densities were obtained by dividing INa amplitude by membrane capacitance. Current –voltage relationships were generated by plotting current density as a function of the […]. Conductance (G Na) was calculated by the […]
where INa is the current amplitude at voltage Vm, and Erev is the Na+ reversal potential.
Activation curves were derived by plotting normalized GNa as a function of test potential and fitted using […]
Where GNa,Max is the maximum conductance, Va is the membrane potential of half-maximal activation, Em is the membrane voltage and k is the slope factor. For steady -state inactivation, normalized current amplitude (INa/INa,Max) at the test potential was plotted as a function of prepulse potential (Vm) and fitted using the […]
Where Vh is the potential of half-maximal inactivation, E m is the membrane voltage, and k is the slope factor.
Transient INa inactivation decay was estimated with the standard exponential equation. Inactivation time constant (tau, τ) was fitted with the following equation: […]
where I(t) is the amplitude of the current at time t and Iss is the steady-state current during a single voltage-step.
The goodness of fitting was determined by correlation coefficient (R), and the cutoff of R was set at 0.85. To observe effects on long-term inactivation (LTI), a four-step protocol was employed during which cells were subjected to four 0 mV, 20 ms depolarization pulses separated by −90 mV, 40 ms recovery intervals. To control for various cell sizes, the current densities were calculated by dividing INa peak current amplitude/membrane capacitance (Cm). To represent the fraction of channels entering into LTI, the peak INa observed during depolarization cycles 2-4 was normalized to the peak INa observed during depolarization cycle 1 (INa/INa,Cycle 1) and plotted as a function of the depolarization cycle.
The cumulative (frequency-dependent) use-dependency was determined by applying 20 pulses with a depolarization to −10 mV (50 ms duration) and 50 ms recovery intervals with a train of 20 pulses at 10 Hz from a holding potential at -70 mV. […]

[1] = + A-803467, Control (pAAV-GFP) + ZL192
[2] = + A-803467, Sh (pAAV-shFGF13-GFP) + ZL192
[3] = + Nav1.8 blocker A-803467, Naive + ZL192
[4] = + Nav1.8 blocker A-803467, Naïve + ZL192

With `CC(=O)N[C@@H](Cc1ccccc1)C(=O)N[C@@H](CC(C)C)C(=O)N1CCC[C@H]1C(=O)N[C@@H](CCCCN)C(=O)Nc1ccccc1` [ZL192] (Ac-FLPK-NHPh) the Activation [1] was −29.64 ± 0.92 mV, the “Peak Density” value [1] was −189.79 ± 15.05 pA/pF and the Steady-State inactivation [1] was −70.68 ± 1.76 mV. For the same molecule, the “Tau (τ)” value [1] was 1.09 ± 0.05 ms, the “Long-term inactivation, 2nd Pulse” value (+ A-803467, Control + ZL192) was −90.69 ± 2.00 % maximal Na+ current and the “Long-term inactivation, 3rd Pulse” value (+ A-803467, Control + ZL192) was −89.18 ± 2.37 % maximal Na+ current. The “Long-term inactivation, 4th Pulse” value (+ A-803467, Control + ZL192) was −87.9 ± 2.75 % maximal Na+ current, the Activation [2] was −22.84 ± 1.28 mV and the “Peak Density” value [2] was −77.34 ± 6.83 pA/pF. The Steady-State inactivation [2] was −61.77 ± 2.40 mV, the “Tau (τ)” value [2] was 1.23 ± 0.05 ms and the “Long-term inactivation, 2nd Pulse” value (+ A-803467, Sh + Zl192) was −84.46 ± 3.81 % maximal Na+ current. For the same molecule, the “Long-term inactivation, 3rd Pulse” value (+ A-803467, Sh + Zl192) was −82.09 ± 3.89 % maximal Na+ current, the “Long-term inactivation, 4th Pulse” value (+ A-803467, Sh + Zl192) was −80.59 ± 4.08 % maximal Na+ current and the Activation [3] was −29.92 ± 0.79 mV. For the same molecule, the “Peak Density” value [3] was −181.06 ± 13.74 pA/pF, the Steady-State inactivation [3] was −72.03 ± 0.94 mV and the “Tau (τ)” value [3] was 1.31 ± 0.06 ms. For the same molecule, the “Long-term inactivation, 2nd Pulse” value [4] was −90.95 ± 1.82 % maximal Na+ current, the “Long-term inactivation, 3rd Pulse” value [4] was −88.17 ± 2.02 % maximal Na+ current and the “Long-term inactivation, 4th Pulse” value [4] was −86.7 ± 1.7 % maximal Na+ current. For the same molecule, the “effect on INa in naive neurons” value (ZL192 50 μM, no triggering stimuli) was “potentiated INa”.
